Read-outs that look alike come from different tables or passages of the source. Square brackets hold non-standard residues; d marks the D form. Peptide text beside a SMILES is read from it. * marks the point of attachment. hArg = N=C(N)NCCCC[C@H](N)C(=O)O; Agmatine = N=C(N)NCCCCN*; PhAc = O=C(Cc1ccccc1)*
Assays:
[1] = system: avian influenza virus (FPV) A/FPV/Rostock/34 (H7N1); assay type: cell-based, influenza virus A/FPV/Rostock/34 (H7N1); conditions: 25 μM inhibitor, MDCK cells, MOI 10^-5, 72 h
MDCK cells = conditions: 25 μM inhibitor, 72 h
[2] = biological target: T1, Recombinantly produced human furin (Homo sapiens, UniProt P09958); assay: Enzyme kinetic studies to determine the inhibitory effect on furin (fluorogenic substrate Pyr-Arg-Thr-Lys-Arg-AMC); assay type: biochemical
T1 construct: made in house
T1 sequence (P09958 108-794): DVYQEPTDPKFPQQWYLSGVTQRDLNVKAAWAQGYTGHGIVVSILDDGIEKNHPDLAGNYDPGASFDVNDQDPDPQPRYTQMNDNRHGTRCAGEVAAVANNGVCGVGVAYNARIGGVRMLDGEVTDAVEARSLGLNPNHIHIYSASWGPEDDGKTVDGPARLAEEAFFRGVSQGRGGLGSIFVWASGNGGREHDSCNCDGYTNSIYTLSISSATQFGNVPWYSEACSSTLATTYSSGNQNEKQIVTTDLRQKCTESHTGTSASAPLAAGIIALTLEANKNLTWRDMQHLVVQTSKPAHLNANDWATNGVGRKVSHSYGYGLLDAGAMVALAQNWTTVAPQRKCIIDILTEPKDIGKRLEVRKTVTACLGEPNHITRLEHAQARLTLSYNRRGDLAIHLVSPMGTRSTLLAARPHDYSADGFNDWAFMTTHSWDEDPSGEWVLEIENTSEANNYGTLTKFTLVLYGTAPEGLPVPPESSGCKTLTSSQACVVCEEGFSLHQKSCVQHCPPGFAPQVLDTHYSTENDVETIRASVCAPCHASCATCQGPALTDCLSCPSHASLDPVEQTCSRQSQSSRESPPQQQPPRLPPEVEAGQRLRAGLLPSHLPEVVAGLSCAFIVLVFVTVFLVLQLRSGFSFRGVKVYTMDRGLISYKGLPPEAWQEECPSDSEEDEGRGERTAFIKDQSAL
Method: The determination of the inhibitory effect was carried out with a fluorescence plate reader Safire^2 from the Tecan company (λEx=380 nm, λEm=460 nm) and Pyr-Arg-Thr-Lys-Arg-AMC (Bachem, No: I-1650) as the substrate. Recombinantly produced human furin (Kacprzak, M. M. et al., J. Biol. Chem., 2004, 279, 36788-36794) was used in the measurement assay in a concentration of approx. 0.95 nM.
To determine the inhibition constants, the inhibitor concentration was varied at least over the range of an order of magnitude at a constant substrate concentration (12.5 μM in the assay), and, respectively, the steady-state velocity was determined. Km and Vmax were determined by means of v/S characteristics parallel to each inhibitor measurement. The calculation of Ki values was carried out through adjustment of the determined velocities as a function of the inhibitor concentration to the velocity equation for competitively, reversibly-binding inhibitors: […]

furin = furin (Homo sapiens, UniProt P09958); conditions: Kacprzak et al., J. Biol. Chem. 2004; read-out: inhibition constant (Ki value) for furin; cited from earlier work
Sequence of furin (P09958 108-794, species assumed): as the sequence (P09958 108-794) above

[3] = Table 2, substrate 12.5 μM, furin approx. 0.95 nM, competitive reversible model, read-out: Ki value for the inhibition of furin
[4] = Table 3, methods as in practical embodiment 6, read-out: Ki for the inhibition of furin

Molecule | Ki [2, 3] | Ki [2, 4] | further results
CC(C)[C@H](NC(=O)[C@H](CCCNC(=N)N)NC(=O)Cc1ccccc1)C(=O)N[C@@H](CCCNC(=N)N)C(=O)NCc1ccc(C(=N)N)cc1 [Inhibitor 1] | – | – | delay of virus release in relation to the untreated control group [1]: about 24 h; vitality of the cells (MDCK cells): not influenced
CC(C)[C@H](NC(=O)[C@H](CCCNC(=N)N)NC(=O)Cc1ccccc1)C(=O)N[C@@H](CCCNC(=N)N)C(=O)NCCCCNC(=N)N [Inhibitor 2] (PhAc-Arg-Val-Arg-Agmatine) | 77 nM | – | –
CC(C)C(NC(=O)C(CCCNC(=N)N)NC(=O)Cc1ccccc1)C(=O)NC(CCCNC(=N)N)C(=O)NCCCCN (stereo not drawn) [Inhibitor 2a] | 25000 nM | – | –
CC(C)C(NC(=O)C(CCCNC(=N)N)NC(=O)Cc1ccccc1)C(=O)NC(CCCNC(=N)N)C(=O)NCC1CCNCC1 (stereo not drawn) [Inhibitor 3a] | 10000 nM | – | –
CC(C)C(NC(=O)C(CCCNC(=N)N)NC(=O)Cc1ccccc1)C(=O)NC(CCCNC(=N)N)C(=O)NCCCNC(=N)N (stereo not drawn) [Inhibitor 4] | 97 nM | – | –
CC(C)C(NC(=O)C(CCCNC(=N)N)NC(=O)Cc1ccccc1)C(=O)NC(CCCNC(=N)N)C(=O)NCCCN (stereo not drawn) [Inhibitor 4a] | 1300 nM | – | –
CC(C)[C@H](NC(=O)[C@H](CCCNC(=N)N)NC(=O)Cc1ccccc1)C(=O)N[C@@H](CCCCN)C(=O)NCCCCNC(=N)N [Inhibitor 10] (PhAc-Arg-Val-Lys-Agmatine) | 49 nM | – | –
CC(C)[C@H](NC(=O)[C@H](CCCNC(=N)N)NC(=O)Cc1ccccc1)C(=O)N[C@@H](CCCCNC(=N)N)C(=O)NCCCCNC(=N)N [Inhibitor 11] (PhAc-Arg-Val-[hArg]-Agmatine) | 47 nM | – | –
CC(=O)NC(CCCNC(=N)N)C(=O)NC(C(=O)NC(CCCNC(=N)N)C(=O)NCCCCN)C(C)C (stereo not drawn) [Inhibitor 12] | – | 41200 nM | –
CC(C)C(NC(=O)C(CCCNC(=N)N)NC(=O)Cc1ccccc1)C(=O)NC(CCCCN)C(=O)NCCCCN (stereo not drawn) [Inhibitor 14] | – | 5410 nM | –
CC(C)C(NC(=O)C(CCCNC(=N)N)NC(=O)Cc1ccccc1)C(=O)NC(CCCNC(=N)N)C(=O)NCC1CCNCC1 (stereo not drawn) [Inhibitor 15] | – | 9710 nM | –
CCCC(=O)NC(CCCNC(=N)N)C(=O)NC(C(=O)NC(CCCNC(=N)N)C(=O)NCc1ccc(C(=N)N)cc1)C(C)C (stereo not drawn) [Inhibitor 17] | – | 0.77 nM | –
CCCCCC(=O)NC(CCCNC(=N)N)C(=O)NC(C(=O)NC(CCCNC(=N)N)C(=O)NCc1ccc(C(=N)N)cc1)C(C)C (stereo not drawn) [Inhibitor 18] | – | 0.82 nM | –
CCCCCCCC(=O)NC(CCCNC(=N)N)C(=O)NC(C(=O)NC(CCCNC(=N)N)C(=O)NCc1ccc(C(=N)N)cc1)C(C)C (stereo not drawn) [Inhibitor 19] | – | 0.82 nM | –
CCCCCCCCCCCC(=O)NC(CCCNC(=N)N)C(=O)NC(C(=O)NC(CCCNC(=N)N)C(=O)NCc1ccc(C(=N)N)cc1)C(C)C (stereo not drawn) [Inhibitor 21] | – | 6.7 nM | –
CCCCCCCCCCCCCC(=O)NC(CCCNC(=N)N)C(=O)NC(C(=O)NC(CCCNC(=N)N)C(=O)NCc1ccc(C(=N)N)cc1)C(C)C (stereo not drawn) [Inhibitor 22] | – | 56.9 nM | –
CC(C)C(NC(=O)C(N)CCCNC(=N)N)C(=O)NC(CCCNC(=N)N)C(=O)NCc1ccc(C(=N)N)cc1 (stereo not drawn) [Inhibitor 26] | – | 7.6 nM | –
CC(C)C(NC(=O)C(CCCNC(=N)N)NC(=O)Cc1ccc(Cl)c(Cl)c1)C(=O)NC(CCCNC(=N)N)C(=O)NCc1ccc(C(=N)N)cc1 (stereo not drawn) [Inhibitor 28] | – | 1.2 nM | –
Cc1ccc(S(=O)(=O)NC(CCCNC(=N)N)C(=O)NC(C(=O)NC(CCCNC(=N)N)C(=O)NCc2ccc(C(=N)N)cc2)C(C)C)cc1 (stereo not drawn) [Inhibitor 29] | – | 4.8 nM | –
CC(C)C(NC(=O)C(CCCNC(=N)N)NC(=O)Cc1ccccc1)C(=O)NC(CCCCN)C(=O)NCc1ccc(C(=N)N)cc1 (stereo not drawn) [Inhibitor 33] | – | 1.5 nM | –
N=C(N)NCCCC(NC(=O)Cc1ccccc1)C(=O)NC(CN)C(=O)NC(CCCCN)C(=O)NCc1ccc(C(=N)N)cc1 (stereo not drawn) [Inhibitor 39] | – | 3.7 nM | –
Nona-D-arginine-amide | – | – | Ki (furin): 1.3 nM
hexa-D-arginine-amide | – | – | Ki (furin): 7.6 nM

— patent US8865865B2, “N-terminally modified tetrapeptide derivatives having a C-terminal arginine mimetic” (Philipps-Universitat Marburg, priority 2008, dated 2014)
